From patent US6472530B1, “Benzo-fused dithiepino[6,5-b]pyridines, and related compositions and methods” (Ortho-McNeil Pharmaceutical, Inc., priority 1999, dated 2002)

Target: T1, calcium channel (Oryctolagus cuniculus, UniProt P15381)
T1 construct: from tissue; host or cells: rabbit heart membrane preparation
Assay: Assay for Inhibition of Nitrendipine Binding (3H-nitrendipine, heart membranes)
Set-up: species or system rabbit
Conditions: Table 1, compounds of Formula I; 3H-nitrendipine displacement, rabbit heart membranes; read-out: Nitrendipine Binding Assay IC50
Procedure: Assay for Inhibition of Nitrendipine Binding
Female, New Zealand white rabbits (1-2 kg) are sacrificed by cervical dislocation, and the heart is immediately removed, cleaned and chopped into small pieces. The tissue is homogenized in 5×times volume of 0.05M Hepes buffer, pH 7.4. The homogenate is centrifuged at 4000 g for 10 minutes, and the supernatant is re-centrifuged at 42,000×g for 90 minutes. The resulting membrane pellet is resuspended (0.7 ml/g weight) in 0.05M Hepes, pH 7.4 and stored at […] until used. Each tube of the binding assay contains ^3H-nitrendipine (0.05-0.50 nM), buffer, membranes (0.10 ml), and test compound in a total volume of 1.0 ml. After 90 minutes at 4° C., the bound nitrendipine is separated from the unbound by filtration on Whatman GF/C filters. After rinsing, the filters are dried and counted in a liquid scintillation counter.
Non-specific binding of ^3H-nitrendipine (that amount bound in the presence of excess unlabelled nitrendipine) is subtracted from the total bound to obtain specifically bound radiolabeled nitrendipine. The amount of specifically bound nitrendipine in the presence of a test compound is compared to that amount bound in the absence of a compound. A percent displacement (or inhibition) can then be calculated.

T1 sequence (P15381 whole entry, other chains not shown): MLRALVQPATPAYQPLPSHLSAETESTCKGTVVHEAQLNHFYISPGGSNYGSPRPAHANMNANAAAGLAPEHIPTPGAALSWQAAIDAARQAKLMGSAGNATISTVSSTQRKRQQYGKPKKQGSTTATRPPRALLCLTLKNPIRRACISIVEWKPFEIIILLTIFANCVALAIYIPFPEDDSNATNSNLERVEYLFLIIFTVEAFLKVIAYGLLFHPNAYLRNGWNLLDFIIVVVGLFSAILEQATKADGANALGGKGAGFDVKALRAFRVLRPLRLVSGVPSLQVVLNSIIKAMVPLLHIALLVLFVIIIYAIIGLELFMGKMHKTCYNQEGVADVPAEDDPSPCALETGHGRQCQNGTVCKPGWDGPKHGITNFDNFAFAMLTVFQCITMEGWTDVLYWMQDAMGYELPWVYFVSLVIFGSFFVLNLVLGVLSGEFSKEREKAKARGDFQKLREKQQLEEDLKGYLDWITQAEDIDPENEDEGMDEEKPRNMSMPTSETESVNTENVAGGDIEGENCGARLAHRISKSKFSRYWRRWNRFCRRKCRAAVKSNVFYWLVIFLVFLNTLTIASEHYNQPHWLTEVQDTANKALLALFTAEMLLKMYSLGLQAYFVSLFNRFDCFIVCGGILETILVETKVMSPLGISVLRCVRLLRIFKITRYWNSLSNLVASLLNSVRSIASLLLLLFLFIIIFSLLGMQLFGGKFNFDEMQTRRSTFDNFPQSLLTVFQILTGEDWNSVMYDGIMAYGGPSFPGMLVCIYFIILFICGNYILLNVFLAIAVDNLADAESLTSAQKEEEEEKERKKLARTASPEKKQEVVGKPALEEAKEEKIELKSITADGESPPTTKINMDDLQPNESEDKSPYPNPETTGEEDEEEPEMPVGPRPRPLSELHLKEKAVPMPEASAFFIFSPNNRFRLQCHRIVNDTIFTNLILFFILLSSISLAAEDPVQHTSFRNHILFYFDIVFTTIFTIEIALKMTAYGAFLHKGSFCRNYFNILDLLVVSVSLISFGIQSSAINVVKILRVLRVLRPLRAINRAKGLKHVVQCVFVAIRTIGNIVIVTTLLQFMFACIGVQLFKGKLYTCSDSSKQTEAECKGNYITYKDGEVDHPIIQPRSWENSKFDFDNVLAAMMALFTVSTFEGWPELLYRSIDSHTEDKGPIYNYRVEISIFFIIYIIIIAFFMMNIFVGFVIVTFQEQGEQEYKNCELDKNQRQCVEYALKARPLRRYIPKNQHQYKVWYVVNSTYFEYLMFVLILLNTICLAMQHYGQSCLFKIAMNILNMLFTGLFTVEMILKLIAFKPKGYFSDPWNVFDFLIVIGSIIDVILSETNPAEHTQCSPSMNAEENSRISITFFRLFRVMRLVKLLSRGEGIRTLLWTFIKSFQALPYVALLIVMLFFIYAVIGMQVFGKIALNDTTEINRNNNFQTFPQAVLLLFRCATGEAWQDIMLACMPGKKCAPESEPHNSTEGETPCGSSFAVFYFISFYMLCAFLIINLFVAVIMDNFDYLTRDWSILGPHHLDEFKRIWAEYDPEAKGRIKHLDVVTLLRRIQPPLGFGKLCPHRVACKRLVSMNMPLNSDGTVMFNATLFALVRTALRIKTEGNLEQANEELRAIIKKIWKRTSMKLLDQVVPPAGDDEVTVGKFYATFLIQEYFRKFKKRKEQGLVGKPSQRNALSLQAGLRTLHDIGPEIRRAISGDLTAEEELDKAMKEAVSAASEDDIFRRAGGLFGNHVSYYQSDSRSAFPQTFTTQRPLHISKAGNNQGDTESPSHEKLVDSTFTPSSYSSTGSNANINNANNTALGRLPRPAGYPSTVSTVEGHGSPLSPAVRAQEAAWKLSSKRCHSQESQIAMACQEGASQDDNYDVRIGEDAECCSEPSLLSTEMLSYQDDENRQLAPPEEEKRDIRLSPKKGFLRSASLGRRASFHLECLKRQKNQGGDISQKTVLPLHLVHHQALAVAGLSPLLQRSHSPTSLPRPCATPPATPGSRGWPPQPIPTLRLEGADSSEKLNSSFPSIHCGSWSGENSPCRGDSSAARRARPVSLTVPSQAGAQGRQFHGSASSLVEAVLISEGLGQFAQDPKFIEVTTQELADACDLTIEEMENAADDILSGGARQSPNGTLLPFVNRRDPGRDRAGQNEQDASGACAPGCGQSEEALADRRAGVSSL
T1 sequence (P13806 27-960 partner limits assumed, other chains not shown): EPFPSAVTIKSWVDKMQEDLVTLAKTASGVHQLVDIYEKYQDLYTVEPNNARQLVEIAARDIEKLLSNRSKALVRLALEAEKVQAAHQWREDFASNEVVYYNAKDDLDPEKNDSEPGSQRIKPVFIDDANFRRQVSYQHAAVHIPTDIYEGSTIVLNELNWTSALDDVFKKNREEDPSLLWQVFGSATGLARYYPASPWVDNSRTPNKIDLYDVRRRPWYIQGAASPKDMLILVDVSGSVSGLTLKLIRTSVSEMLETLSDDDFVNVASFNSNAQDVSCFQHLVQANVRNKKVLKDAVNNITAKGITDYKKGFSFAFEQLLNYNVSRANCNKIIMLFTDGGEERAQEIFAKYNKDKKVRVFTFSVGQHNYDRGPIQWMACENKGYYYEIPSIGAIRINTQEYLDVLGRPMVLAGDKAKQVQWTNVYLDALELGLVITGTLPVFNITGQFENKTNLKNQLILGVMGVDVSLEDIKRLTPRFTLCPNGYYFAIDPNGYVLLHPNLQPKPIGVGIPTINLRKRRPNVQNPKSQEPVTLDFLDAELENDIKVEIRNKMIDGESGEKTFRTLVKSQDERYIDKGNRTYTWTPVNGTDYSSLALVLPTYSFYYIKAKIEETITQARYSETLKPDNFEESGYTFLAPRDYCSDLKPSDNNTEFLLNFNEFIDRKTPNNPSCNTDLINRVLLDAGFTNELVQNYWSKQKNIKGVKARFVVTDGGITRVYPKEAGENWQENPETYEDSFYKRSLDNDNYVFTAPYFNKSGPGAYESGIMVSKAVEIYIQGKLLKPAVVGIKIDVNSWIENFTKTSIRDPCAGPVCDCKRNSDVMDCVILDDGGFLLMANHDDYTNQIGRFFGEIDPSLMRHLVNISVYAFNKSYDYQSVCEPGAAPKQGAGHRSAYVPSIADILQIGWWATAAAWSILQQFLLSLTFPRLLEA
T1 sequence (P13806 961-1106 partner limits assumed, other chains not shown): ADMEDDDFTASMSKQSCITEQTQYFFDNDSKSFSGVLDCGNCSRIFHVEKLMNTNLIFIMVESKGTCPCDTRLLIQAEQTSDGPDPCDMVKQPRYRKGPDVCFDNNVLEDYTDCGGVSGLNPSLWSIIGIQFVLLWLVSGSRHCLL

Row | SMILES | IC50
1 | COC(=O)C1=C(C)NC2=C(C1c1ccccc1Cl)S(=O)(=O)c1ccccc1S(=O)(=O)C2 (centres unmarked) [Compound 5, 1H-[1,5]Benzodithiepino[3,2-b]pyridine-3-carboxylic acid, 4-(2-chlorophenyl)-4,11-dihydro-2-methyl, methyl ester, 5,5,10,10-tetraoxide] | 9 nM
2 | COC(=O)C1=C(C)NC2=C(C1c1cccc(Cl)c1)S(=O)(=O)c1ccccc1[S+]([O-])C2 (centres unmarked) [Compound 6, 1H-[1,5]Benzodithiepino[3,2-b]pyridine-3-carboxylic acid, 4-(3-chlorophenyl)-4,11-dihydro-2-methyl, methyl ester, 5,5,10-trioxide] | 20 nM
3 | CC1=C(C(=O)OCCN(C)Cc2ccccc2)C(c2cccc(C(F)(F)F)c2F)C2=C(CS(=O)(=O)c3ccccc3S2(=O)=O)N1 (centres unmarked) [Compound 14, 1H-[1,5]Benzodithiepino[3,2-b]pyridine-3-carboxylic acid, 4-[2-fluoro-3-(trifluoromethyl)phenyl]-4,11-dihydro-2-methyl, 2-[methyl(phenylmethyl)-amino]ethyl ester, 5,5,10,10-tetraoxide] | 58 nM
4 | CC1=C(C(=O)OCCN(C)Cc2ccccc2)C(c2c(F)c(F)c(F)c(F)c2F)C2=C(CS(=O)(=O)c3ccccc3S2(=O)=O)N1 (centres unmarked) [Compound 12, 1H-[1,5]Benzodithiepino[3,2-b]pyridine-3-carboxylic acid, 4,11-dihydro-2-methyl-4-(pentafluorophenyl), 2-[methyl(phenylmethyl)amino]ethyl ester, 5,5,10,10-tetraoxide] | 21 nM
5 | COC(=O)C1=C(C)NC2=C(C1c1cccc(C(F)(F)F)c1F)S(=O)(=O)c1ccccc1S(=O)(=O)C2 (centres unmarked) [Compound 13, 1H-[1,5]Benzodithiepino[3,2-b]pyridine-3-carboxylic acid, 4-[2-fluoro-3-(trifluoromethyl)phenyl]-4,11-dihydro-2-methyl, methyl ester, 5,5,10,10-tetraoxide] | 14 nM
6 | CC1=C(C(=O)OCCN(C)Cc2ccccc2)C(c2ccccc2Cl)C2=C(C[S+]([O-])c3ccccc3S2(=O)=O)N1 (centres unmarked) [Compound 18, 1H-[1,5]Benzodithiepino[3,2-b]pyridine-3-carboxylic acid, 4-(2-chlorophenyl)-4,11-dihydro-2-methyl, 2-[methyl(phenylmethyl)amino]ethyl ester, 5,5,10-trioxide] | 23 nM
7 | COC(=O)C1=C(C)NC2=C(C1c1cccc(Cl)c1Cl)S(=O)(=O)c1ccccc1S(=O)(=O)C2 (centres unmarked) [Compound 8, 1H-[1,5]Benzodithiepino[3,2-b]pyridine-3-carboxylic acid, 4-(2,3-dichlorophenyl)-4,11-dihydro-2-methyl, methyl ester, 5,5,10,10-tetraoxide] | 22 nM
8 | CC1=C(C(=O)OCCN(C)Cc2ccccc2)C(c2cccc(Cl)c2)C2=C(CS(=O)(=O)c3ccccc3S2(=O)=O)N1 (centres unmarked) [Compound 4, 1H-[1,5]Benzodithiepino[3,2-b]pyridine-3-carboxylic acid, 4-(3-chlorophenyl)-4,11-dihydro-2-methyl, 2-[methyl(phenylmethyl)amino]ethyl ester, 5,5,10,10-tetraoxide] | 22 nM
9 | CC1=C(C(=O)OCCN(C)Cc2ccccc2)C(c2cccc(Cl)c2Cl)C2=C(CS(=O)(=O)c3ccccc3S2(=O)=O)N1 (centres unmarked) [Compound 2, 1H-[1,5]Benzodithiepino[3,2-b]pyridine-3-carboxylic acid, 4-(2,3-dichlorophenyl)-4,11-dihydro-2-methyl, 2-[methyl(phenylmethyl)amino]ethyl ester, 5,5,10,10-tetraoxide] | 20 nM
10 | CC1=C(C(=O)OCCN(C)Cc2ccccc2)C(c2c(F)cccc2Cl)C2=C(CS(=O)(=O)c3ccccc3S2(=O)=O)N1 (centres unmarked) [Compound 17, 1H-[1,5]Benzodithiepino[3,2-b]pyridine-3-carboxylic acid, 4-(2-chloro-6-fluorophenyl)-4,11-dihydro-2-methyl, 2-[methyl(phenylmethyl)amino]ethyl ester, 5,5,10,10-tetraoxide] | 62 nM
11 | COC(=O)C1=C(C)NC2=C(C1c1c(F)c(F)c(F)c(F)c1F)S(=O)(=O)c1ccccc1S(=O)(=O)C2 (centres unmarked) [Compound 11, 1H-[1,5]Benzodithiepino[3,2-b]pyridine-3-carboxylic acid, 4,11-dihydro-2-methyl-4-(pentafluorophenyl), methyl ester, 5,5,10,10-tetraoxide] | 12 nM
12 | COC(=O)C1=C(C)NC2=C(C1c1ccccc1Cl)S(=O)(=O)c1ccccc1[S+]([O-])C2 (centres unmarked) [Compound 1, 1H-[1,5]Benzodithiepino[3,2-b]pyridine-3-carboxylic acid, 4-(2-chlorophenyl)-4,11-dihydro-2-methyl, methyl ester, 5,5,10-trioxide] | 14 nM
13 | CC1=C(C(=O)OCCN(C)Cc2ccccc2)C(c2ccccc2Cl)C2=C(CS(=O)(=O)c3ccccc3S2(=O)=O)N1 (centres unmarked) [Compound 19, 1H-[1,5]Benzodithiepino[3,2-b]pyridine-3-carboxylic acid, 4-(2-chlorophenyl)-4,11-dihydro-2-methyl, 2-[methyl(phenylmethyl)amino]ethyl ester, 5,5,10,10-tetraoxide] | 18 nM

Same assay, conditions: Table 2, compounds of Formula II; 3H-nitrendipine displacement, rabbit heart membranes; read-out: Nitrendipine Binding IC50

Row | SMILES | IC50
14 | CC1=C(C(=O)OCCCO)C(c2c(F)cccc2Cl)C2=C(CS(=O)(=O)c3ccccc3S2(=O)=O)N1 (centres unmarked) [Compound 33] | 1440 nM
15 | CC1=C(C(=O)OCCN)C(c2c(F)cccc2Cl)C2=C(CS(=O)(=O)c3ccccc3S2(=O)=O)N1 (centres unmarked) [Compound 26, 1H-[1,5]benzodithiepino[3,2-b]pyridine-3-carboxylic acid, 4-(2-chloro-6-fluorophenyl)-4,11-dihydro-2-methyl-, 2-aminoethyl ester, 5,5,10,10-tetraoxide] | 2000 nM
16 | CC1=C(C(=O)OCCOC(=O)C(C)(C)C)C(c2c(F)cccc2Cl)C2=C(CS(=O)(=O)c3ccccc3S2(=O)=O)N1 (centres unmarked) [Compound 28, 1H-[1,5]benzodithiepino[3,2-b]pyridine-3-carboxylic acid, 4-(2-chloro-6-fluorophenyl)-4,11-dihydro-2-methyl-, 2-(2,2-dimethyl-1-oxopropoxy)ethyl ester, 5,5,10,10-tetraoxide] | 370 nM
17 | CC1=C(C(=O)OCCOC(=O)C2CCCCC2)C(c2c(F)cccc2Cl)C2=C(CS(=O)(=O)c3ccccc3S2(=O)=O)N1 (centres unmarked) [Compound 24, 1H-[1,5]benzodithiepino[3,2-b]pyridine-3-carboxylic acid, 4-(2-chloro-6-fluorophenyl)-4,11-dihydro-2-methyl-, 2-[(cyclohexylcarbonyl)oxy]ethyl ester, 5,5,10,10-tetraoxide] | 43 nM
18 | CC1=C(C(=O)OCCOC(=O)CCCCCCc2ccccc2)C(c2c(F)cccc2Cl)C2=C(CS(=O)(=O)c3ccccc3S2(=O)=O)N1 (centres unmarked) [Compound 35] | 60 nM
19 | CC1=C(C(=O)OCCOC(=O)CCCCCCCCCc2ccccc2)C(c2c(F)cccc2Cl)C2=C(CS(=O)(=O)c3ccccc3S2(=O)=O)N1 (centres unmarked) [Compound 36] | 116000 nM
20 | CC1=C(C(=O)OCCNC(=O)OC(C)(C)C)C(c2c(F)cccc2Cl)C2=C(CS(=O)(=O)c3ccccc3S2(=O)=O)N1 (centres unmarked) [Compound 25, 1H-[1,5]benzodithiepino[3,2-b]pyridine-3-carboxylic acid, 4-(2-chloro-6-fluorophenyl)-4,11-dihydro-2-methyl-, 2-[[(1,1-dimethylethoxy)carbonyl]amino]ethyl ester, 5,5,10,10-tetraoxide] | 420 nM
21 | CC1=C(C(=O)OCCO)C(c2c(F)cccc2Cl)C2=C(CS(=O)(=O)c3ccccc3S2(=O)=O)N1 (centres unmarked) [Compound 21] | 6070 nM
22 | CC1=C(C(=O)OCCOC(=O)/C=C/c2ccccc2)C(c2c(F)cccc2Cl)C2=C(CS(=O)(=O)c3ccccc3S2(=O)=O)N1 (centres unmarked) [Compound 37, 1H-[1,5]benzodithiepino[3,2-b]pyridine-3-carboxylic acid, 4-(2-chloro-6-fluorophenyl)-4,11-dihydro-2-methyl-, 2-[[(2E)-1-oxo-3-phenyl-2-propenyl]oxy]ethyl ester, 5,5,10,10-tetraoxide] | 101 nM
23 | CC1=C(C(=O)OCCO)C(c2c(F)cccc2Cl)C2=C(C[S+]([O-])c3ccccc3S2(=O)=O)N1 (centres unmarked) [Compound 20] | 306 nM
24 | CC1=C(C(=O)OCCOC(=O)c2ccccc2)C(c2c(F)cccc2Cl)C2=C(CS(=O)(=O)c3ccccc3S2(=O)=O)N1 (centres unmarked) [Compound 23, 1H-[1,5]benzodithiepino[3,2-b]pyridine-3-carboxylic acid, 4-(2-chloro-6-fluorophenyl)-4,11-dihydro-2-methyl-, 2-(benzoyloxy)ethyl ester, 5,5,10,10-tetraoxide] | 30 nM
25 | COc1ccc2cc([C@H](C)C(=O)OCCOC(=O)C3=C(C)NC4=C(C3c3c(F)cccc3Cl)S(=O)(=O)c3ccccc3S(=O)(=O)C4)ccc2c1 (stereo partly drawn) [Compound 31, 1H-[1,5]benzodithiepino[3,2-b]pyridine-3-carboxylic acid, 4-(2-chloro-6-fluorophenyl)-4,11-dihydro-2-methyl-, 2-[[(2S)-2-(6-methoxy-2-naphthalenyl)-1-oxopropyl]oxy]ethyl ester, 5,5,10,10-tetraoxide] | 209 nM
26 | CC1=C(C(=O)OCCOC(=O)C(C)c2ccc(CC(C)C)cc2)C(c2c(F)cccc2Cl)C2=C(CS(=O)(=O)c3ccccc3S2(=O)=O)N1 (centres unmarked) [Compound 32] | 618 nM
